This assay relates to TLR4-induced IL-23. The experiment in a line: IL23-p19 ELISA, dendritic cells (PBMC-derived), LPS stimulated. The assay is classed as cell-based. To be noted: human primary dendritic cells (DC); result in words. The method, then:
Compound Screening Using DC Cells
• Human PBMC cells (All Cells, Cat No. PB002) • RPMI growth media containing 10% FBS • IFNγ (Peprotech, Cat No. 300-02) • GMCSF (Peprotech, Cat No. 300-03) and IL4 (Peprotech Cat No. 200-04) • White clear bottom 96 well plates (Fisher, Cat No. 07-200-587, Corning #3903) • LPS (Make 2.5 mg/ml Stock in PBS) from Sigma Aldrich (Cat No. L2018-5MG) • Cell Titer Glo reagent (Promega, Cat No. G7573) • Positive controls, IKK2VI inhibitor (Calbiochem, Cat No. 401483)
Human PBMC cells (400 million) obtained from the vendor were transferred into a T-175 flask containing 15 ml RPMI media (10% FBS) and incubate for 2 hours at 37 °C. […]
155 µl of the supernatant was harvested from each well carefully (without the tip touching the bottom of the well) and to the remaining 50 µl / well of the cell culture plate was added 50 µl of Cell Titer Glo reagent. The mixture was incubated for 1-2 minutes on a shaker and the plate was read for luminescence intensity to determine the compound cytotoxicity. […]
After 45 minutes, the plates were washed with TBST 4X and 100 ul / well Super Signal ELISA Pico Chemiluminescent Substrate from Pierce (3.5 ml A + 3.5 ml B + 3.5 ml MQ water) was added. The plates were shaken for 1-2 minutes then read on a plate reader. […]

The structures appear in SMILES notation.

Regarding `CCO[C@H]1CC[C@H](n2cc(NC(=O)c3csc(-c4cn[nH]c4)n3)c(-c3ncccn3)n2)CC1` [Compound I-1, N-(1-((1r,4r)-4-ethoxycyclohexyl)-3-(pyrimidin-2-yl)-1H-pyrazol-4-yl)-2-(1H-pyrazol-4-yl)thiazole-4-carboxamide], the “TLR4-induced IL-23 production” value is “blocks”.

These data come from patent publication EP4799701A2, “PYRIMID-2-YL-PYRAZOLE COMPOUNDS AS IRAK INHIBITORS” (Rigel Pharmaceuticals, Inc., priority 2022, dated 2023).
